Broadly, the ED50 is the dose at which the effect has come halfway, by size or by number of responders.

Data on four compounds can be found in patent publication US20160250354A1, “METHODS AND COMPOSITIONS FOR DELIVERY OF ACTIVE AGENTS” (TEKMIRA PHARMACEUTICALS CORPORATION, priority 2010, published 2016).

This assay relates to Factor VII. Put plainly: in vivo rodent Factor VII silencing model (serum/plasma FVII after i.v. FVII siRNA lipid formulation). More on the design: species or system C57BL/6 mice. How it is done:
C57BL/6 mice (Charles River Labs, MA) receive either saline or siRNA in desired formulations via tail vein injection at a volume of 0.01 mL/g. At various time points post-administration, animals are anesthetized by isofluorane inhalation and blood is collected into serum separator tubes by retro orbital bleed. Serum levels of Factor VII protein are determined in samples using a chromogenic assay (Coaset Factor VII, DiaPharma Group, OH or Biophen FVII, Aniara Corporation, OH) according to manufacturer protocols. A standard curve is generated using serum collected from saline treated animals. In experiments where liver mRNA levels were assessed, at various time points post-administration, animals are sacrificed and livers are harvested and snap frozen in liquid nitrogen. Frozen liver tissue is ground into powder. Tissue lysates were prepared and liver mRNA levels of Factor VII and apoB are determined using a branched DNA assay (QuantiGene Assay, Panomics, CA).
Factor VII (FVII), a prominent protein in the coagulation cascade, is synthesized in the liver (hepatocytes) and secreted into the plasma. FVII levels in plasma can be determined by a simple, plate-based colorimetric assay. As such, FVII represents a convenient model for determining sirna-mediated downregulation of hepatocyte-derived proteins, as well as monitoring plasma concentrations and tissue distribution of the nucleic acid lipid particles and siRNA.
The cationic lipids shown above are used to formulate liposomes containing the AD-1661duplex using an in-line mixing method, as described in U.S. provisional patent application 61/228,373, which is incorporated by reference in its entirety. Lipid particles are formulated using the following molar ratio: 50% Cationic lipid/10% distearoylphosphatidylcholine (DSPC)/38.5% Cholesterol/1.5% PEG-DMG (1-(monomethoxy-polyethyleneglycol)-2,3-dimyristoylglycerol, with an average PEG molecular weight of 2000).
C57BL/6 mice (Charles River Labs, MA) receive either saline or formulated siRNA via tail vein injection. At various time points after administration, serum samples are collected by retroorbital bleed. Serum levels of Factor VII protein are determined in samples using a chromogenic assay (Biophen FVII, Aniara Corporation, OH). To determine liver mRNA levels of Factor VII, animals are sacrificed and livers were harvested and snap frozen in liquid nitrogen. Tissue lysates are prepared from the frozen tissues and liver mRNA levels of Factor VII are quantified using a branched DNA assay (QuantiGene Assay, Panomics, CA).
FVII activity is evaluated in FVII siRNA-treated animals at 48 hours after intravenous (bolus) injection in C57BL/6 mice. FVII is measured using a commercially available kit for determining protein levels in serum or tissue, following the manufacturer's instructions at a microplate scale. FVII reduction is determined against untreated control mice, and the results are expressed as % Residual FVII. Two dose levels (0.05 and 0.005 mg/kg FVII siRNA) are used in the screen of each novel liposome composition.
Cationic lipid containing particles are made using the preformed vesicle method. Cationic lipid, DSPC, cholesterol and PEG-lipid were solubilized in ethanol at a molar ratio of 40/10/40/10, respectively. The lipid mixture is added to an aqueous buffer (50 mM citrate, pH 4) with mixing to a final ethanol and lipid concentration of 30% (vol/vol) and 6.1 mg/mL respectively and allowed to equilibrate at room temperature for 2 min before extrusion. The hydrated lipids are extruded through two stacked 80 nm pore-sized filters (Nuclepore) at 22° C. using a Lipex Extruder (Northern Lipids, Vancouver, BC) until a vesicle diameter of 70-90 nm, as determined by Nicomp analysis, is obtained. This generally required 1-3 passes.
The FVII siRNA (solubilised in a 50 mM citrate, pH 4 aqueous solution containing 30% ethanol) is added to the vesicles, pre-equilibrated to 35° C., at a rate of ˜5 mL/min with mixing. […]

Setting [1] is: Table 10, dose resulting in a 50% reduction in plasma FVII levels vs control animals, lipid formulation with FVII siRNA, i.v. tail vein, C57Bl/6 mice.

`CCCCC/C=C\C/C=C\CCCCCCCCC(CCCCCCCC/C=C\C/C=C\CCCCC)SSCCCCN(C)C` [Compound 2] showed an ED50 under setting [1] of 0.11 mg/kg. Take `CCCCCC1CC1CC1CC1CCCCCCCCC(CCCCCCCCC1CC1CC1CC1CCCCC)OC(=O)CCCN(C)C` (stereo not drawn) [Compound 1, 1,17-bis(2-((2-pentylcyclopropyl)methyl)cyclopropyl)heptadecan-9-yl 4-(dimethylamino)butanoate]: the ED50 by setting is: under setting [1], 0.12 mg/kg; (in-line mixing formulation compound 1/DSPC/Chol/(C14)PEG-DMG 50/10/38.5/1.5, FIG. 1) 0.01 mg/kg; (pre-formed vesicle (PFV) formulation compound 1/DSPC/Chol/(C14)PEG-DMG 40/10/40/10, FIG. 2) 0.12 mg/kg. The compound `CCCCC/C=C\C/C=C\CCCCCCC[C@H]1OC2(CCN(C)CC2)O[C@@H]1CCCCCCC/C=C\C/C=C\CCCCC` [Compound 4] came in with an ED50 under setting [1] of 0.07 mg/kg. The same measure, in the same setting: to `CCCCC/C=C\C/C=C\CCCCCCCCC(CCCCCCCC/C=C\C/C=C\CCCCC)ON=CCCCN(C)C` [Compound 3] belongs 0.06 mg/kg.
